Experimental data reported in ChEMBL document CHEMBL1131182, “Anti-AIDS agents. 34. Synthesis and structure-activity relationships of betulin derivatives as anti-HIV agents” (J Med Chem, 1998).

test: Therapeutic Index is the […] of the IC50 to that of EC50; type: cell-based; conditions: human, H9 cells; read-out: TI

Structure (SMILES)	selectivity ratio
C=C(C)[C@@H]1CC[C@]2(COC(=O)CC(C)(C)CC(=O)O)CC[C@]3(C)[C@H](CC[C@@H]4[C@@]5(C)CCC(=O)C(C)(C)[C@@H]5CC[C@]43C)[C@@H]12	2.9
CC(C)[C@@H]1CC[C@]2(COC(=O)CC(C)(C)CC(=O)O)CC[C@]3(C)[C@H](CC[C@@H]4[C@@]5(C)CC[C@H](OC(=O)CC(C)(C)CC(=O)O)C(C)(C)[C@@H]5CC[C@]43C)[C@@H]12	2250
C=C(C)[C@@H]1CC[C@]2(COC(=O)CC3(CC(=O)O)CCCC3)CC[C@]3(C)[C@H](CC[C@@H]4[C@@]5(C)CC[C@H](OC(=O)CC6(CC(=O)O)CCCC6)C(C)(C)[C@@H]5CC[C@]43C)[C@@H]12	267
CCC(C)(CC(=O)O)CC(=O)OC[C@]12CC[C@@H](C(C)C)[C@@H]1[C@H]1CC[C@@H]3[C@@]4(C)CC[C@H](OC(=O)CC(C)(CC)CC(=O)O)C(C)(C)[C@@H]4CC[C@@]3(C)[C@]1(C)CC2 (stereo partly drawn)	248
C=C(C)[C@@H]1CC[C@]2(COC(=O)CC(C)(C)CC(=O)O)CC[C@]3(C)[C@H](CC[C@@H]4[C@@]5(C)CC=CC(C)(C)[C@@H]5CC[C@]43C)[C@@H]12	5.2
C=C(C)[C@@H]1CC[C@]2(C(=O)O)CC[C@]3(C)[C@H](CC[C@@H]4[C@@]5(C)CC[C@H](OC(=O)COCC(=O)O)C(C)(C)[C@@H]5CC[C@]43C)[C@@H]12	1170
C=C(C)[C@@H]1CC[C@]2(COC(=O)CC(C)(C)CC(=O)O)CC[C@]3(C)[C@H](CC[C@@H]4[C@@]5(C)CC[C@H](O)C(C)(C)[C@@H]5CC[C@]43C)[C@@H]12	7.8
C=C(C)[C@@H]1CC[C@]2(COC(=O)CC(C)(CC)CC(=O)O)CC[C@]3(C)[C@H](CC[C@@H]4[C@@]5(C)CC[C@H](OC(=O)CC(C)(CC)CC(=O)O)C(C)(C)[C@@H]5CC[C@]43C)[C@@H]12 (stereo partly drawn)	3480
C=C(C)[C@@H]1CC[C@]2(CO)CC[C@]3(C)[C@H](CC[C@@H]4[C@@]5(C)CC=CC(C)(C)[C@@H]5CC[C@]43C)[C@@H]12	2.7
C=C(C)[C@@H]1CC[C@]2(COC(=O)CC(C)(C)CC(=O)O)CC[C@]3(C)[C@H](CC[C@@H]4[C@@]5(C)CC[C@H](OC(=O)CC(C)(C)CC(=O)O)C(C)(C)[C@@H]5CC[C@]43C)[C@@H]12	21500
CC(C)[C@@H]1CC[C@]2(COC(=O)CC3(CC(=O)O)CCCC3)CC[C@]3(C)[C@H](CC[C@@H]4[C@@]5(C)CC[C@H](OC(=O)CC6(CC(=O)O)CCCC6)C(C)(C)[C@@H]5CC[C@]43C)[C@@H]12	37
C=C(C)[C@@H]1CC[C@]2(C(=O)O)CC[C@]3(C)[C@H](CC[C@@H]4[C@@]5(C)CC[C@H](OC(=O)C(C)(C)CC(=O)O)C(C)(C)[C@@H]5CC[C@]43C)[C@@H]12	5.9
C=C(C)[C@@H]1CC[C@]2(CO)CC[C@]3(C)[C@H](CC[C@@H]4[C@@]5(C)CC[C@H](O)C(C)(C)[C@@H]5CC[C@]43C)[C@@H]12 [BETULIN]	1.9
